# Test results taken from patent US11192894B2, “Cell impermeable coelenterazine analogues” (PROMEGA CORPORATION, priority 2016, dated 2021).
# How the values were obtained:
# [1] = target: purified NANOLUC® Luciferase (Oplophorus gracilirostris, UniProt Q9GV45, A31E/A60N/A81I/F95D/I117V/K70R/L54V/L99Q/M102K/N193R/P142E/Q151K/Q38R/Q45L/V71I/Y165I); assay type: biochemical; conditions: relative value, furimazine set to 1; purified NanoLuc; initial light output three minutes after substrate addition
# Experimental: Each compound to be screened was dissolved in DMSO (5 mM) and then further diluted to 100 uM in NANO-GLO® Luciferase Assay Buffer. Each diluted substrate was then combined in equal volumes with purified NANOLUC® Luciferase diluted into CO2 independent media+10% FBS. Initial light output for each substrate was measured in a GloMax®-Multi+ luminometer three minutes after substrate addition and then at five minute intervals as a means to determine signal half-life. […] Km was calculated using GraphPad Prism using non linear Michaelis-Menten regression.
# [2] = system: KDR:NanoLuc; experiment: Cell-based luciferase assay, HEK293 cells expressing KDR:NanoLuc (NanoLuc in the interior of the cell), ± extracellular inhibitor JRW-0344; conditions: HEK293 expressing KDR:Nluc; 10 μM substrate ± 20 μM JRW-0344; FIG. 2C
# Experimental: (§1) FIGS. 2A-2D show extracellular bioluminescent activity of exemplary compounds in HEK293 cells. HEK293 cells were transfected with two different membrane bound NANOLUC® fusions: 1) NanoLuc:KDR, presenting NanoLuc on the outside of the membrane; 2) KDR:NanoLuc, presenting NanoLuc on the inside of the membrane. The cell impermeable NANOLUC® inhibitor JRW-0344 (disclosed in U.S. Ser. No. 15/192,420 to Duellman et al., “THIENOPYRROLE COMPOUNDS AND USES THEREOF,” filed Jun. 24, 2016), was added to the cells to inhibit extracellular bioluminescent activity.
# (§2) HEK293 cells were maintained in DMEM containing 100 IU/ml penicillin, 100 μg/ml streptomycin, and 10% fetal calf serum at 37° C. in 5% CO2. Dulbecco's modified eagle medium (DMEM), Opti-MEM, Penicillin/Streptomycin, and Trypsin-EDTA are purchased from Life Technologies (Carlsbad). Fetal calf serum (FBS) is purchased from HyClone (GE Healthcare). Microtiter plates were purchased from Corning.
# (§3) HEK293 cells were transiently transfected with two different integral membrane NanoLuc fusion proteins: 1) NanoLuc:KDR, presenting NanoLuc on the cell surface; 2) KDR:NanoLuc, presenting NanoLuc in the interior of the cell. After 24 hours, transfected cells were collected, resuspended in OptiM at 200,000 cell/ml and plated into wells of white, 96-well plates at 100 μL/well. For luminescent measurements, cells were treated with the indicated substrates at a final concentration of 10 μM or 20 μM in the presence or absence of 20 μM cell impermeable NanoLuc inhibitor JRW-0344. The luminescent signal was analyzed 3 minutes after substrate addition using a GLOMAX® Discover multimode detection plate reader (Promega).
# [3] = system: NanoLuc:KDR; experiment: Cell-based luciferase assay, HEK293 cells expressing NanoLuc:KDR (NanoLuc on the cell surface), ± extracellular inhibitor JRW-0344; conditions: 10 μM substrate ± 20 μM inhibitor, FIG. 2A
# Experimental: as §1, §2, §3
# purified NANOLUC® Luciferase, sequence (Q9GV45 28-196 with tags or gaps with the stated changes limits assumed): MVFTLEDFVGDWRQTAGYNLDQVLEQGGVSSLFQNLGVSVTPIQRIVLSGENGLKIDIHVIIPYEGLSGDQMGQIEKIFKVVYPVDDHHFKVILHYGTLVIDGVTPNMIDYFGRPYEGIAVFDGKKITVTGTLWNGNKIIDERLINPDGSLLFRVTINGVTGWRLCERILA
Structure (SMILES),RLU at 100 uM [1],RLU and effect of the extracellular inhibitor [2],Difference in RLU's in the presence and absence of the extracellular inhibitor [3]
"O=c1c(Cc2ccc(OCCCCCCS(=O)(=O)OCC(Cl)(Cl)Cl)c(Cl)c2)nc2c(Cc3ccccc3)[nH]c(-c3ccccc3)cn1-2 [JRW-0665, 2,2,2-trichloroethyl 6-(4-((8-benzyl-3-oxo-6-phenyl-3,7-dihydroimidazo[1,2-a]pyrazin-2-yl)methyl)-2-chlorophenoxy)hexane-1-sulfonate]",0.0055,,
"CC(C)(C)OC(=O)CCCCCOc1cccc(Cc2nc3c(Cc4ccccc4)[nH]c(-c4ccccc4)cn-3c2=O)c1 [JRW-0682, tert-butyl 6-(3-((8-benzyl-3-oxo-6-phenyl-3,7-dihydroimidazo[1,2-a]pyrazin-2-yl)methyl)phenoxy)hexanoate]",0.0024,,
"O=C(O)CCCCCOc1cccc(Cc2nc3c(Cc4ccccc4)[nH]c(-c4ccccc4)cn-3c2=O)c1 [JRW-0684, 6-(3-((8-benzyl-3-oxo-6-phenyl-3,7-dihydroimidazo[1,2-a]pyrazin-2-yl)methyl)phenoxy)hexanoic acid]",0.0057,not affected by the extracellular inhibitor,Small differences in RLU's
"O=c1c(Cc2cccc(OCCCCCCBr)c2)nc2c(Cc3ccccc3)[nH]c(-c3ccccc3)cn1-2 [JRW-0692, 8-benzyl-2-(3-((6-bromohexyl)oxy)benzyl)-6-phenylimidazo[1,2-a]pyrazin-3(7H)-one]",0.0025,,
"O=c1c(Cc2cccc(OCCCS(=O)(=O)[O-])c2)nc2c(Cc3ccccc3)[nH]c(-c3ccccc3)cn1-2.[Na+] [JRW-0713, sodium 3-(3-((8-benzyl-3-oxo-6-phenyl-3,7-dihydroimidazo[1,2-a]pyrazin-2-yl)methyl)phenoxy)propane-1-sulfonate]",0.00081,,
"CC(C)(C)OC(=O)CCCOc1cccc(Cc2nc3c(Cc4ccccc4)[nH]c(-c4ccccc4)cn-3c2=O)c1 [JRW-0714, tert-butyl 4-(3-((8-benzyl-3-oxo-6-phenyl-3,7-dihydroimidazo[1,2-a]pyrazin-2-yl)methyl)phenoxy)butanoate]",0.0013,,
"O=C(O)CCCOc1cccc(Cc2nc3c(Cc4ccccc4)[nH]c(-c4ccccc4)cn-3c2=O)c1 [JRW-0716, 4-(3-((8-benzyl-3-oxo-6-phenyl-3,7-dihydroimidazo[1,2-a]pyrazin-2-yl)methyl)phenoxy)butanoic acid]",0.0022,,
"CC(C)(C)OC(=O)CCCCCCCOc1cccc(Cc2nc3c(Cc4ccccc4)[nH]c(-c4ccccc4)cn-3c2=O)c1 [JRW-0719, tert-butyl 8-(3-((8-benzyl-3-oxo-6-phenyl-3,7-dihydroimidazo[1,2-a]pyrazin-2-yl)methyl)phenoxy)octanoate]",0.0011,,
"O=c1c(Cc2ccc(OCCCCCCBr)c(Cl)c2)nc2c(Cc3ccccc3)[nH]c(-c3ccccc3)cn1-2 [JRW-0720, 8-benzyl-2-(4-((6-bromohexyl)oxy)-3-chlorobenzyl)-6-phenylimidazo[1,2-a]pyrazin-3(7H)-one]",0.0085,not affected by the extracellular inhibitor,Small differences in RLU's
"O=C(O)CCCCCCCOc1cccc(Cc2nc3c(Cc4ccccc4)[nH]c(-c4ccccc4)cn-3c2=O)c1 [JRW-0722, 8-(3-((8-benzyl-3-oxo-6-phenyl-3,7-dihydroimidazo[1,2-a]pyrazin-2-yl)methyl)phenoxy)octanoic acid]",0.023,,
"CC(C)(C)OC(=O)CCCCCOc1ccc(Cc2nc3c(Cc4ccccc4)[nH]c(-c4ccccc4)cn-3c2=O)cc1Cl [JRW-0725, tert-butyl 6-(4-((8-benzyl-3-oxo-6-phenyl-3,7-dihydroimidazo[1,2-a]pyrazin-2-yl)methyl)-2-chlorophenoxy)hexanoate]",0.013,,
"CC(=O)N[C@@H](CC(=O)O)C(=O)N[C@@H](CC(=O)O)C(=O)N[C@@H](CC(=O)O)C(=O)NCCCCCCOc1cccc(Cc2nc3c(Cc4ccccc4)[nH]c(-c4ccccc4)cn-3c2=O)c1 [JRW-0741, (S)-3-acetamido-4-(((S)-1-(((S)-1-((6-(3-((8-benzyl-3-oxo-6-phenyl-3,7-dihydroimidazo[1,2-a]pyrazin-2-yl)methyl)phenoxy)hexyl)amino)-3-carboxy-1-oxopropan-2-yl)amino)-3-carboxy-1-oxopropan-2-yl)amino)-4-oxobutanoic acid]",0.0057,,
"CC(C)(C)OC(=O)c1cccc(-c2cn3c(=O)c(Cc4ccco4)nc-3c(Cc3ccccc3)[nH]2)c1 [JRW-0755, tert-butyl 3-(8-benzyl-2-(furan-2-ylmethyl)-3-oxo-3,7-dihydroimidazo[1,2-a]pyrazin-6-yl)benzoate]",0.000043,,
"O=c1c(Cc2ccc(OCCCCCCCCS(=O)(=O)[O-])c(Cl)c2)nc2c(Cc3ccccc3)[nH]c(-c3ccccc3)cn1-2.[Na+] [JRW-0761, sodium 8-(4-((8-benzyl-3-oxo-6-phenyl-3,7-dihydroimidazo[1,2-a]pyrazin-2-yl)methyl)-2-chlorophenoxy)octane-1-sulfonate]",0.075,,
"O=c1c(Cc2ccc(OCCCCCCCCCCS(=O)(=O)[O-])c(Cl)c2)nc2c(Cc3ccccc3)[nH]c(-c3ccccc3)cn1-2.[Na+] [JRW-0765, sodium 10-(4-((8-benzyl-3-oxo-6-phenyl-3,7-dihydroimidazo[1,2-a]pyrazin-2-yl)methyl)-2-chlorophenoxy)decane-1-sulfonate]",0.011,,
"O=c1c(Cc2ccc(Cl)c(OCCCCCCS(=O)(=O)[O-])c2)nc2c(Cc3ccccc3)[nH]c(-c3ccccc3)cn1-2.[Na+] [JRW-0766, sodium 6-(5-((8-benzyl-3-oxo-6-phenyl-3,7-dihydroimidazo[1,2-a]pyrazin-2-yl)methyl)-2-chlorophenoxy)hexane-1-sulfonate]",0.015,,
"O=c1c(Cc2cc(F)c(OCCCCCCS(=O)(=O)[O-])c(F)c2)nc2c(Cc3ccccc3)[nH]c(-c3ccccc3)cn1-2.[Na+] [JRW-0771, sodium 6-(4-((8-benzyl-3-oxo-6-phenyl-3,7-dihydroimidazo[1,2-a]pyrazin-2-yl)methyl)-2,6-difluorophenoxy)hexane-1-sulfonate]",0.15,,
"O=C(O)c1ccc(-c2cn3c(=O)c(Cc4ccco4)nc-3c(Cc3ccccc3)[nH]2)cc1 [JRW-0790, 4-(8-benzyl-2-(furan-2-ylmethyl)-3-oxo-3,7-dihydroimidazo[1,2-a]pyrazin-6-yl)benzoic acid]",0.0029,,
"NCCCCCCOc1ccc(Cc2nc3c(Cc4ccccc4)[nH]c(-c4ccccc4)cn-3c2=O)cc1F [JRW-0801, 2-(4-((6-aminohexyl)oxy)-3-fluorobenzyl)-8-benzyl-6-phenylimidazo[1,2-a]pyrazin-3(7H)-one]",0.0073,,
"O=c1c(Cc2ccc(OCCCCCCS(=O)(=O)O)c(Cl)c2)nc2c(Cc3ccccc3)[nH]c(-c3cccc(O)c3)cn1-2 [JRW-0805, 6-(4-((8-benzyl-6-(3-hydroxyphenyl)-3-oxo-3,7-dihydroimidazo[1,2-a]pyrazin-2-yl)methyl)-2-chlorophenoxy)hexane-1-sulfonic acid]",0.17,,
"CC(=O)N[C@@H](CC(=O)O)C(=O)N[C@@H](CC(=O)O)C(=O)N[C@@H](CC(=O)O)C(=O)NCCCCCCOc1ccc(Cc2nc3c(Cc4ccccc4)[nH]c(-c4ccccc4)cn-3c2=O)cc1F [JRW-0806, (S)-3-acetamido-4-(((S)-1-(((S)-1-((6-(4-((8-benzyl-3-oxo-6-phenyl-3,7-dihydroimidazo[1,2-a]pyrazin-2-yl)methyl)-2-fluorophenoxy)hexyl)amino)-3-carboxy-1-oxopropan-2-yl)amino)-3-carboxy-1-oxopropan-2-yl)amino)-4-oxobutanoic acid]",0.021,,
